From ChEMBL document CHEMBL1201862, “PubChem BioAssay data set” (2004)
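Briefly, cells in 96-well plates were exposed to five compound concentrations for 48 h, and endpoints were estimated by linear interpolation. Here, GI50 denotes the concentration required for 50% inhibition of growth.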 Active and inactive are the calls of the source. Rule as the data show it: active = GI50 up to about 1.1 µM and inactive = higher.

Key:
Assay in all cases: DTP human tumour cell line panel, 48 h
NCI-H460 = tested on: NCI-H460
DLD-1 = tested on: DLD-1
SR = tested on: SR
CAKI-1 = tested on: CAKI-1
HT-29 = tested on: HT-29
OVCAR-3 = tested on: OVCAR-3
DMS-114 = tested on: DMS-114
RPMI-8226 = tested on: RPMI-8226
TK-10 = tested on: TK-10
NCI-H522 = tested on: NCI-H522
XF498 = tested on: XF498
HCC 2998 = tested on: HCC 2998
OVCAR-5 = tested on: OVCAR-5
EKVX = tested on: EKVX
786-0 = tested on: 786-0
M14 = tested on: M14
Malme-3M = tested on: Malme-3M
A549 = tested on: A549
SK-MEL-2 = tested on: SK-MEL-2
CCRF-CEM = tested on: CCRF-CEM
K562 = tested on: K562
RXF 631 = tested on: RXF 631
SK-OV-3 = tested on: SK-OV-3
SNB-19 = tested on: SNB-19
KM-20L2 = tested on: KM-20L2
HL-60 = tested on: HL-60
SNB-78 = tested on: SNB-78
SN12C = tested on: SN12C
SF-295 = tested on: SF-295
HCT-116 = tested on: HCT-116
UO-31 = tested on: UO-31
OVCAR-8 = tested on: OVCAR-8
M19-MEL = tested on: M19-MEL
MOLT-4 = tested on: MOLT-4
UACC-62 = tested on: UACC-62
U-251 = tested on: U-251
DMS-273 = tested on: DMS-273
NCI-H226 = tested on: NCI-H226
RXF 393 = tested on: RXF 393
NCI-H23 = tested on: NCI-H23
HOP-92 = tested on: HOP-92
SF-268 = tested on: SF-268
HOP-62 = tested on: HOP-62
SK-MEL-28 = tested on: SK-MEL-28
HCT-15 = tested on: HCT-15
OVCAR-4 = tested on: OVCAR-4
SK-MEL-5 = tested on: SK-MEL-5
ACHN = tested on: ACHN
KM12 = tested on: KM12
SF-539 = tested on: SF-539
SW-620 = tested on: SW-620
LOX IMVI = tested on: LOX IMVI
COLO 205 = tested on: COLO 205
SNB-75 = tested on: SNB-75
IGROV-1 = tested on: IGROV-1
LXFL 529 = tested on: LXFL 529
A498 = tested on: A498
UACC-257 = tested on: UACC-257

COc1ccc(C(=O)C(c2ccc(OCc3ccccc3)cc2)c2ccc(OCc3ccccc3)cc2)cc1
GI50 (NCI-H460): > 100 µM (inactive)
GI50 (DLD-1): > 100 µM (inactive)
GI50 (SR): > 100 µM (inactive)
GI50 (CAKI-1): > 100 µM (inactive)
GI50 (HT-29): > 100 µM (inactive)
GI50 (OVCAR-3): > 100 µM (inactive)
GI50 (DMS-114): > 100 µM (inactive)
GI50 (RPMI-8226): > 100 µM (inactive)
GI50 (TK-10): > 100 µM (inactive)
GI50 (NCI-H522): > 100 µM (inactive)
GI50 (XF498): > 100 µM (inactive)
GI50 (HCC 2998): > 100 µM (inactive)
GI50 (OVCAR-5): > 100 µM (inactive)
GI50 (EKVX): > 100 µM (inactive)
GI50 (786-0): > 100 µM (inactive)
GI50 (M14): > 100 µM (inactive)
GI50 (Malme-3M): > 100 µM (inactive)
GI50 (A549): > 100 µM (inactive)
GI50 (SK-MEL-2): > 100 µM (inactive)
GI50 (CCRF-CEM): > 100 µM (inactive)
GI50 (K562): > 100 µM (inactive)
GI50 (RXF 631): 2.67 µM (inactive)
GI50 (SK-OV-3): > 100 µM (inactive)
GI50 (SNB-19): > 100 µM (inactive)
GI50 (KM-20L2): > 100 µM (inactive)
GI50 (HL-60): > 100 µM (inactive)
GI50 (SNB-78): > 100 µM (inactive)
GI50 (SN12C): > 100 µM (inactive)
GI50 (SF-295): > 100 µM (inactive)
GI50 (HCT-116): > 100 µM (inactive)
GI50 (UO-31): > 100 µM (inactive)
GI50 (OVCAR-8): > 100 µM (inactive)
GI50 (M19-MEL): > 100 µM (inactive)
GI50 (MOLT-4): > 100 µM (inactive)
GI50 (UACC-62): > 100 µM (inactive)
GI50 (U-251): > 100 µM (inactive)
GI50 (DMS-273): > 100 µM (inactive)
GI50 (NCI-H226): > 100 µM (inactive)
GI50 (RXF 393): > 100 µM (inactive)
GI50 (NCI-H23): > 100 µM (inactive)
GI50 (HOP-92): > 100 µM (inactive)
GI50 (SF-268): > 100 µM (inactive)
GI50 (HOP-62): > 100 µM (inactive)
GI50 (SK-MEL-28): > 100 µM (inactive)
GI50 (HCT-15): > 100 µM
GI50 (OVCAR-4): > 100 µM (inactive)
GI50 (SK-MEL-5): > 100 µM (inactive)
GI50 (ACHN): > 100 µM (inactive)
GI50 (KM12): > 100 µM (inactive)
GI50 (SF-539): > 100 µM (inactive)
GI50 (SW-620): > 100 µM (inactive)
GI50 (LOX IMVI): > 100 µM (inactive)
GI50 (COLO 205): > 100 µM (inactive)
GI50 (SNB-75): > 100 µM (inactive)
GI50 (IGROV-1): > 100 µM (inactive)

CCOC(=O)c1ccc(/N=C/c2ccc(N(CCC#N)S(=O)(=O)c3ccccc3)cc2C)cc1
GI50 (DLD-1): 25.1 µM (inactive)
GI50 (CAKI-1): 39.4 µM (inactive)
GI50 (HT-29): 37.2 µM (inactive)
GI50 (OVCAR-3): 54.7 µM (inactive)
GI50 (DMS-114): 36 µM (inactive)
GI50 (LXFL 529): 6.01 µM (inactive)
GI50 (RPMI-8226): 36.2 µM (inactive)
GI50 (TK-10): 49.3 µM (inactive)
GI50 (NCI-H522): 72.1 µM (inactive)
GI50 (XF498): > 100 µM (inactive)
GI50 (HCC 2998): 28.7 µM (inactive)
GI50 (OVCAR-5): 31.8 µM (inactive)
GI50 (EKVX): 52.8 µM (inactive)
GI50 (786-0): > 100 µM (inactive)
GI50 (M14): 25.4 µM (inactive)
GI50 (Malme-3M): 53.8 µM (inactive)
GI50 (A549): 47.1 µM (inactive)
GI50 (SK-MEL-2): 33.5 µM (inactive)
GI50 (A498): > 100 µM (inactive)
GI50 (CCRF-CEM): 36.6 µM (inactive)
GI50 (K562): 9.79 µM (inactive)
GI50 (RXF 631): > 100 µM (inactive)
GI50 (SK-OV-3): 76.9 µM (inactive)
GI50 (UACC-257): 50 µM (inactive)
GI50 (SNB-19): > 100 µM (inactive)
GI50 (KM-20L2): 16.4 µM (inactive)
GI50 (HL-60): 19.4 µM (inactive)
GI50 (SNB-78): 33.2 µM (inactive)
GI50 (SN12C): 75.7 µM (inactive)
GI50 (SF-295): 26.5 µM (inactive)
GI50 (HCT-116): 36.9 µM (inactive)
GI50 (UO-31): 28.3 µM (inactive)
GI50 (OVCAR-8): > 100 µM (inactive)
GI50 (M19-MEL): 36.6 µM (inactive)
GI50 (MOLT-4): 28.6 µM (inactive)
GI50 (UACC-62): 19.4 µM (inactive)
GI50 (U-251): 97.1 µM (inactive)
GI50 (DMS-273): 65.3 µM (inactive)
GI50 (NCI-H23): > 100 µM (inactive)
GI50 (SF-268): 26.1 µM (inactive)
GI50 (HOP-62): 31 µM (inactive)
GI50 (SK-MEL-28): 61.2 µM (inactive)
GI50 (HCT-15): 6.82 µM
GI50 (OVCAR-4): 39.4 µM (inactive)
GI50 (SK-MEL-5): 80.7 µM (inactive)
GI50 (KM12): 18.7 µM (inactive)
GI50 (SF-539): 41.9 µM (inactive)
GI50 (SW-620): 76.6 µM (inactive)
GI50 (LOX IMVI): 22.8 µM (inactive)
GI50 (COLO 205): 20.4 µM (inactive)
GI50 (SNB-75): 32.4 µM (inactive)
GI50 (IGROV-1): > 100 µM (inactive)

CCN1C2=NC(=O)N(C)C(=O)C2(Cl)C(C(SC)S(=O)(=O)c2ccc(C)cc2)c2ccccc21 (stereo not given)
GI50 (NCI-H460): 83.4 µM (inactive)
GI50 (DLD-1): 33.4 µM (inactive)
GI50 (CAKI-1): 34 µM (inactive)
GI50 (HT-29): 34.8 µM (inactive)
GI50 (OVCAR-3): 24.1 µM (inactive)
GI50 (DMS-114): 41.1 µM (inactive)
GI50 (LXFL 529): 23.3 µM (inactive)
GI50 (RPMI-8226): 12.7 µM (inactive)
GI50 (TK-10): > 100 µM (inactive)
GI50 (NCI-H522): 11.8 µM (inactive)
GI50 (XF498): 49.5 µM (inactive)
GI50 (HCC 2998): > 100 µM (inactive)
GI50 (OVCAR-5): > 100 µM (inactive)
GI50 (EKVX): > 100 µM (inactive)
GI50 (786-0): 25.1 µM (inactive)
GI50 (M14): 24.2 µM (inactive)
GI50 (Malme-3M): 47.3 µM (inactive)
GI50 (A549): 85.1 µM (inactive)
GI50 (SK-MEL-2): 55.3 µM (inactive)
GI50 (A498): > 100 µM (inactive)
GI50 (CCRF-CEM): 5.62 µM (inactive)
GI50 (K562): 20.7 µM (inactive)
GI50 (RXF 631): 21.4 µM (inactive)
GI50 (SK-OV-3): > 100 µM (inactive)
GI50 (UACC-257): 23.6 µM (inactive)
GI50 (SNB-19): 51.9 µM (inactive)
GI50 (KM-20L2): 57.8 µM (inactive)
GI50 (HL-60): 4.2 µM (inactive)
GI50 (SNB-78): 24.2 µM (inactive)
GI50 (SN12C): 61 µM (inactive)
GI50 (SF-295): 51.8 µM (inactive)
GI50 (HCT-116): 20.1 µM (inactive)
GI50 (UO-31): 19.9 µM (inactive)
GI50 (OVCAR-8): 21.2 µM (inactive)
GI50 (M19-MEL): 24.7 µM (inactive)
GI50 (MOLT-4): 3.7 µM (inactive)
GI50 (UACC-62): 44.7 µM (inactive)
GI50 (U-251): 79.8 µM (inactive)
GI50 (DMS-273): 31.6 µM (inactive)
GI50 (NCI-H226): 32.4 µM (inactive)
GI50 (NCI-H23): 20 µM (inactive)
GI50 (HOP-92): 30.6 µM (inactive)
GI50 (SF-268): 39.2 µM (inactive)
GI50 (HOP-62): > 100 µM (inactive)
GI50 (SK-MEL-28): 24.3 µM (inactive)
GI50 (OVCAR-4): 22.9 µM (inactive)
GI50 (SK-MEL-5): 35.6 µM (inactive)
GI50 (SF-539): 37.5 µM (inactive)
GI50 (SW-620): 31.6 µM (inactive)
GI50 (LOX IMVI): 31.3 µM (inactive)
GI50 (COLO 205): 31.6 µM (inactive)
GI50 (SNB-75): 20.7 µM (inactive)
GI50 (IGROV-1): 76.9 µM (inactive)
